EC50 data for 45 compounds are collected here from US11440909B2, “10H-phenothiazine ferroptosis inhibitor as well as the preparative method and the use thereof” (CHENGDU HENGHAO INVESTMENT CO. LIMITED, priority 2018, dated 2022).

The subject of the assay is fibrosarcoma cell line HT1080. As to the kind of experiment: Ferroptosis screening model (MTT method), Erastin-induced ferroptosis. Conditions: HT1080, ferroptosis inducer Erastin, 72 h, average of three tests, read-out: EC50. Type of assay: cell-based, human. The method, then: The screening model for ferroptosis mainly used MTT method. First, the fibrosarcoma cell line HT1080 was cultured in a dish, and the cells in the logarithmic growth phase were inoculated into a 96-well plate in a certain number (3000-10000 cells/well), 100 μL per well, and then the plate was put in an 5% CO2 incubator at 37° C., to allow the cells to adhere. After 24 h, 100 μL compound solution at a certain concentration prepared in the designated medium and ferroptosis inducer Erastin (with a final concentration of […]) were added, setting 3 replicate wells for each compound to ensure the accuracy of the results, and a negative control group, a positive control group (Fer-15 μM), a blank control group and a solvent control group were included. After addition of drugs, the plate was placed in an incubator and cultivated for 72 h. On the day of MTT experiment, MTT test solution (5 mg/mL MTT solution dissolved in physiological saline, and stored in the dark at 4° C.) was pre-prepared and 20 μL MTT solution was added to each well, then the plate was put in an incubator and continued to incubate for 2-4 h. After that, 50 μL of 20% SDS solution (dissolved in MiliiQ water, added with 1% concentrated hydrochloric acid) was added to each well and kept in an incubator overnight. On the next day, the absorbance at 570 nm was measured with a microplate reader, to calculate the inhibition rate of drugs on ferroptosis. Generally, the absorbance value of the control group should be in the range of 0.8-1.2 as a normal value.
GraphPadPrism5 software was used to fit the change curve of inhibition rate and calculate the EC50.
Background: Formazan colour is commonly taken as a measure of viable cells.

Read-outs that look alike come from different tables or passages of the source.

`CC(c1ccccc1)c1ccc2c(c1)Nc1ccccc1S2` (stereo not drawn) [Compound A1, 2-(1-phenylethyl)-10H-phenothiazine]: the 50% effective concentration (EC50) amounted to 0.003 µM. As to `CC(c1cccc(F)c1)c1ccc2c(c1)Nc1ccccc1S2` (stereo not drawn) [Compound A2, 2-(1-(3-fluorophenyl)ethyl)-10H-phenothiazine], the EC50 (Homo sapiens, HT-1080, 72 h) is 0.006 µM. Still for that read-out and setting: as for `CC(c1cccc(Cl)c1)c1ccc2c(c1)Nc1ccccc1S2` (stereo not drawn) [Compound A3, 2-(1-(3-chlorophenyl)ethyl)-10H-phenothiazine], the figure is 0.005 µM; as for `CC(c1cccc(I)c1)c1ccc2c(c1)Nc1ccccc1S2` (stereo not drawn) [Compound A4, 2-(1-(3-iodophenyl)ethyl)-10H-phenothiazine], 0.005 µM; as for `CC(c1cccc(C#N)c1)c1ccc2c(c1)Nc1ccccc1S2` (stereo not drawn) [Compound A5, 3-(1-(10H-phenothiazin-2-yl)ethyl)benzonitrile], 0.015 µM. Turning to `CC(c1cccc(O)c1)c1ccc2c(c1)Nc1ccccc1S2` (stereo not drawn) [Compound A6, 3-(1-(10H-phenothiazin-2-yl)ethyl)phenol], the EC50 (Homo sapiens, HT-1080, 72 h) is 0.005 µM. As for `CC(c1cccc(N)c1)c1ccc2c(c1)Nc1ccccc1S2` (stereo not drawn) [Compound A7, 3-(1-(10H-phenothiazin-2-yl)ethyl)phenylamine], the EC50 (Homo sapiens, HT-1080, 72 h) was found to be 0.001 µM. Still for that read-out and setting: next, `Cc1cccc(C(C)c2ccc3c(c2)Nc2ccccc2S3)c1` (stereo not drawn) [Compound A8, 2-(1-(m-methylphenyl)ethyl)-10H-phenothiazine]: 0.005 µM; `CCc1cccc(C(C)c2ccc3c(c2)Nc2ccccc2S3)c1` (stereo not drawn) [Compound A9, 2-(1-(3-ethylphenyl)ethyl)-10H-phenothiazine]: 0.018 µM; `CC(C)c1cccc(C(C)c2ccc3c(c2)Nc2ccccc2S3)c1` (stereo not drawn) [Compound A10, 2-(1-(3-isopropylphenyl)ethyl)-10H-phenothiazine]: 0.012 µM. As to `CCOc1cccc(C(C)c2ccc3c(c2)Nc2ccccc2S3)c1` (stereo not drawn) [Compound A11, 2-(1-(3-ethoxylphenyl)ethyl)-10H-phenothiazine], the concentration giving a half-maximal response (EC50) (Homo sapiens, HT-1080, 72 h) turned out to be 0.019 µM. In the case of `CC(C)Oc1cccc(C(C)c2ccc3c(c2)Nc2ccccc2S3)c1` (stereo not drawn) [Compound A12, 2-(1-(3-isopropoxylphenyl)ethyl)-10H-phenothiazine], where the note is “Homo sapiens, HT-1080, 72 h”, the half-maximal effective concentration (EC50) was determined as 0.015 µM. As to `CC(c1cccc(OCc2ccccc2)c1)c1ccc2c(c1)Nc1ccccc1S2` (stereo not drawn) [Compound A13, 2-(1-(3-(benzyloxyl)phenyl)ethyl)-10H-phenothiazine], the EC50 (Homo sapiens, HT-1080, 72 h) stood at 0.025 µM. On to `CCOC(=O)c1cccc(C(C)c2ccc3c(c2)Nc2ccccc2S3)c1` (stereo not drawn) [Compound A14, 3-(1-(10H-phenothiazin-2-yl)ethyl)benzoic acid ethyl ester], for which the concentration for a half-maximal effect (EC50) (Homo sapiens, HT-1080, 72 h) is 0.005 µM. Still for that read-out and setting: next, `CC(c1cccc(C(=O)OC(C)(C)C)c1)c1ccc2c(c1)Nc1ccccc1S2` (stereo not drawn) [Compound A15, 3-(1-(10H-phenothiazin-2-yl)ethyl)benzoic acid t-butyl ester]: 0.017 µM; `CC(c1cccc(NC(=O)OC(C)(C)C)c1)c1ccc2c(c1)Nc1ccccc1S2` (stereo not drawn) [Compound A16, (3-(1-(10H-phenothiazin-2-yl)ethyl)phenyl)carbamic acid t-butyl ester]: 0.049 µM; `CC(c1cccc(OC(F)(F)F)c1)c1ccc2c(c1)Nc1ccccc1S2` (stereo not drawn) [Compound A17, 2-(1-(3-(trifluoromethoxyl)phenyl)ethyl)-10H-phenothiazine]: 0.013 µM. Take `CC(c1cccc(-c2ccccc2)c1)c1ccc2c(c1)Nc1ccccc1S2` (stereo not drawn) [Compound A18, 2-(1-([1,1′-diphenyl]-3-yl)ethyl)-10H-phenothiazine]: the EC50 (Homo sapiens, HT-1080, 72 h) came to 0.07 µM. Still for that read-out and setting: as for `CC(c1ccc(F)cc1)c1ccc2c(c1)Nc1ccccc1S2` (stereo not drawn) [Compound A19, 2-(1-(4-fluorophenyl)ethyl)-10H-phenothiazine], the figure is 0.006 µM. On the same count and under the same terms, next, `CC(c1ccc(Cl)cc1)c1ccc2c(c1)Nc1ccccc1S2` (stereo not drawn) [Compound A20, 2-(1-(4-chlorophenyl)ethyl)-10H-phenothiazine]: 0.015 µM.

As for `CC(c1ccc(C(F)(F)F)cc1)c1ccc2c(c1)Nc1ccccc1S2` (stereo not drawn) [Compound A21, 2-(1-(4-(trifluoromethyl)phenyl)ethyl)-10H-phenothiazine], the 50% effective concentration (EC50) (Homo sapiens, HT-1080, 72 h) came to 0.006 µM. For the compound `CC(c1ccc(C#N)cc1)c1ccc2c(c1)Nc1ccccc1S2` (stereo not drawn) [Compound A22, 4-(1-(10H-phenothiazin-2-yl)ethyl)benzonitrile], the concentration giving a half-maximal response (EC50) (Homo sapiens, HT-1080, 72 h) was 0.006 µM. Turning to `CC(c1ccc(OC(F)(F)F)cc1)c1ccc2c(c1)Nc1ccccc1S2` (stereo not drawn) [Compound A23, 2-(1-(4-(trifluoromethoxyl)phenyl)ethyl)-10H-phenothiazine], the EC50 (Homo sapiens, HT-1080, 72 h) came to 0.02 µM. In the case of `CCc1ccc(C(C)c2ccc3c(c2)Nc2ccccc2S3)cc1` (stereo not drawn) [Compound A24, 2-(1-(4-ethylphenyl)ethyl)-10H-phenothiazine], the concentration giving a half-maximal response (EC50) (Homo sapiens, HT-1080, 72 h) worked out at 0.02 µM. On to `CCCc1ccc(C(C)c2ccc3c(c2)Nc2ccccc2S3)cc1` (stereo not drawn) [Compound A25, 2-(1-(4-propylphenyl)ethyl)-10H-phenothiazine], for which the EC50 (Homo sapiens, HT-1080, 72 h) is 0.021 µM. Turning to `CC(C)c1ccc(C(C)c2ccc3c(c2)Nc2ccccc2S3)cc1` (stereo not drawn) [Compound A26, 2-(1-(4-isopropylphenyl)ethyl)-10H-phenothiazine], where the note is “Homo sapiens, HT-1080, 72 h”, the EC50 was determined as 0.006 µM. As for `CCCCc1ccc(C(C)c2ccc3c(c2)Nc2ccccc2S3)cc1` (stereo not drawn) [Compound A27, 2-(1-(4-butylphenyl)ethyl)-10H-phenothiazine], the EC50 (Homo sapiens, HT-1080, 72 h) was 0.064 µM. Same read-out and setting: next, `CC(C)Cc1ccc(C(C)c2ccc3c(c2)Nc2ccccc2S3)cc1` (stereo not drawn) [Compound A28, 2-(1-(4-isobutylphenyl)ethyl)-10H-phenothiazine]: 0.008 µM; `CC(c1ccc(C(C)(C)C)cc1)c1ccc2c(c1)Nc1ccccc1S2` (stereo not drawn) [Compound A29, 2-(1-(4-t-butylphenyl)ethyl)-10H-phenothiazine]: 0.007 µM; `COc1ccc(C(C)c2ccc3c(c2)Nc2ccccc2S3)cc1` (stereo not drawn) [Compound A30, 2-(1-(4-methoxylphenyl)ethyl)-10H-phenothiazine]: 0.006 µM.

Consider `CCOc1ccc(C(C)c2ccc3c(c2)Nc2ccccc2S3)cc1` (stereo not drawn) [Compound A31, 2-(1-(4-ethoxylphenyl)ethyl)-10H-phenothiazine], for which, where the note is “Homo sapiens, HT-1080, 72 h”, the EC50 came to 0.017 µM.

For the compound `CCCOc1ccc(C(C)c2ccc3c(c2)Nc2ccccc2S3)cc1` (stereo not drawn) [Compound A32, 2-(1-(4-propoxylphenyl)ethyl)-10H-phenothiazine], the EC50 (Homo sapiens, HT-1080, 72 h) came out at 0.062 µM. In the case of `CC(C)Oc1ccc(C(C)c2ccc3c(c2)Nc2ccccc2S3)cc1` (stereo not drawn) [Compound A33, 2-(1-(4-isopropoxylphenyl)ethyl)-10H-phenothiazine], the 50% effective concentration (EC50) was 0.017 µM. `CC(C)Oc1ccc(C(C)c2ccc3c(c2)Nc2ccccc2S3)cc1` (stereo not drawn) [Compound A34, 2-(1-(4-isopropoxylphenyl)ethyl)-10H-phenothiazine]: the 50% effective concentration (EC50) turned out to be 0.065 µM. Take `CC(c1ccc(OCc2ccccc2)cc1)c1ccc2c(c1)Nc1ccccc1S2` (stereo not drawn) [Compound A35, 2-(1-(4-(benzyloxyl)phenyl)ethyl)-10H-phenothiazine]: for the setting “Homo sapiens, HT-1080, 72 h”, the EC50 was determined as 0.014 µM. `COC(=O)c1ccc(C(C)c2ccc3c(c2)Nc2ccccc2S3)cc1` (stereo not drawn) [Compound A36, 4-(1-(10H-phenothiazin-2-yl)ethyl)benzoic acid methyl ester]: the EC50 (Homo sapiens, HT-1080, 72 h) worked out at 0.013 µM. `CC(c1ccc(N(c2ccccc2)c2ccccc2)cc1)c1ccc2c(c1)Nc1ccccc1S2` (stereo not drawn) [Compound A37, 4-(1-(10H-phenothiazin-2-yl)ethyl)-N,N-diphenylphenylamine]: the EC50 (Homo sapiens, HT-1080, 72 h) was 0.323 µM. On to `CC(c1ccc(F)c(F)c1)c1ccc2c(c1)Nc1ccccc1S2` (stereo not drawn) [Compound A39, 2-(1-(3,4-difluorophenyl)ethyl)-10H-phenothiazine], for which the half-maximal effective concentration (EC50) (Homo sapiens, HT-1080, 72 h) was 0.017 µM. For `CC(c1ccc(F)c(Cl)c1)c1ccc2c(c1)Nc1ccccc1S2` (stereo not drawn) [Compound A40, 2-(1-(3-chloro-4-fluorophenyl)ethyl)-10H-phenothiazine], for the setting “Homo sapiens, HT-1080, 72 h”, the EC50 came out at 0.005 µM. On the same count and under the same terms, next, `CC(c1ccc2c(c1)Nc1ccccc1S2)c1ccc(F)c(C(F)(F)F)c1` (stereo not drawn) [Compound A41, 2-(1-(4-fluoro-3-(trifluoromethyl)phenyl)ethyl)-10H-phenothiazine]: 0.018 µM; `CC(c1ccc(Cl)c(Cl)c1)c1ccc2c(c1)Nc1ccccc1S2` (stereo not drawn) [Compound A42, 2-(1-(3,4-dichlorophenyl)ethyl)-10H-phenothiazine]: 0.016 µM; `CC(c1ccc2c(c1)Nc1ccccc1S2)c1ccc(Cl)c(C(F)(F)F)c1` (stereo not drawn) [Compound A43, 2-(1-(4-chloro-3-(trifluoromethyl)phenyl)ethyl)-10H-phenothiazine]: 0.017 µM. On the same count and under the same terms, as for `CC(c1ccc(Cl)c(F)c1)c1ccc2c(c1)Nc1ccccc1S2` (stereo not drawn) [Compound A44, 2-(1-(4-chloro-3-fluorophenyl)ethyl)-10H-phenothiazine], the figure is 0.019 µM. As to `CC(c1ccc(C(F)(F)F)c(Cl)c1)c1ccc2c(c1)Nc1ccccc1S2` (stereo not drawn) [Compound A45, 2-(1-(3-chloro-4-(trifluoromethyl)phenyl)ethyl)-10H-phenothiazine], the EC50 (Homo sapiens, HT-1080, 72 h) amounted to 0.022 µM. In the case of `Cc1ccc(C(C)c2ccc3c(c2)Nc2ccccc2S3)cc1C` (stereo not drawn) [Compound A46, 2-(1-(3,4-dimethylphenyl)ethyl)-10H-phenothiazine], the EC50 (Homo sapiens, HT-1080, 72 h) was determined as 0.021 µM.

One may read the EC50 as the concentration at which the effect is half-maximal.
